IC50 data for 18 molecules are collected here from patent publication US20230399342A1 (Incyte Corporation, priority 2022, published 2023).

Test [1] deals with DGKα (Homo sapiens (Human), UniProt P23743). In words: In vitro DGKα inhibition assay (ADP-Glo). The format is biochemical. The settings on record: His-tagged human recombinant enzyme, 0.1 nM DGKα, 50 μM ATP, 20 μM DLG, 90 minute incubation. The procedure: (§1) The DGKα and DGKξ biochemical reactions were performed using His-tagged human recombinant enzymes (Signal Chem, DGKα, #D21-1OBH; DGKξ, #D30-10H)) and DLG (Dilauroyl-sn-glycerol) lipid substrate (Signal Chem, #D430-59). ADP-Glo assay was performed using ADP-Glog™ kinase Assay kit (Promega, #V9104). The reactions were carried out in assay buffer containing 40 mM Tris, pH 7.5, 0.1% CHAPS, 0.1% Prionex, 40 mM NaCl, 5 mM MgCl2, 1 mM CaCl2, and 1 mM DTT. DGKα reactions contained 0.1 nM DGKα, 50 μM ATP, and 20 μM DLG. And DGKC reactions contained 0.4 nM DGK, 30 μM ATP, and 20 μM DLG.
Sequence of DGKα (P23743 whole entry): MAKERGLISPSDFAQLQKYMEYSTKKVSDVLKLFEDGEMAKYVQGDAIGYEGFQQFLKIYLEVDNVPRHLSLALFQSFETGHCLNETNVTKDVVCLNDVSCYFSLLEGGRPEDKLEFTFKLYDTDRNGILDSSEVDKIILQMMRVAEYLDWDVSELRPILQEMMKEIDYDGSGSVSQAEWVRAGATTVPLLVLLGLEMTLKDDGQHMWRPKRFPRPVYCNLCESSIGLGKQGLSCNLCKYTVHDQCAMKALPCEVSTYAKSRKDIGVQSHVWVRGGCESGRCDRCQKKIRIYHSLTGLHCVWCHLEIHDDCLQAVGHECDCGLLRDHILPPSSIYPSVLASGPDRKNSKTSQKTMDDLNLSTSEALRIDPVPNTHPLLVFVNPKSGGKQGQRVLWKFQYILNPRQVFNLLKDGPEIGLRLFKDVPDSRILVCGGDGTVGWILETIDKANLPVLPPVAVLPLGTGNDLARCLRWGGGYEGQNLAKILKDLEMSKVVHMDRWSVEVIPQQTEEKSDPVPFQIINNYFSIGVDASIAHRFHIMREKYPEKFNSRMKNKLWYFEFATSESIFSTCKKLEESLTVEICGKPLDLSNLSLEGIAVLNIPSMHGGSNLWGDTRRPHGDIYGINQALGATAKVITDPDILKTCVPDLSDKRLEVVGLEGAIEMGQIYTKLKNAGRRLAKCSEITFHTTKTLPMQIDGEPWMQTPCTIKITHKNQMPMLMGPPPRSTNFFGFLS
(§2) For compound inhibition studies, 40 nL test compound in DMSO was added to wells of white polystyrene plates in 384-well (Greiner, #784075) or 1536-well format (Greiner, #782075). Compounds were added with top concentration of 2 mM with 11 point, 3-fold dilution series. Enzyme solution (contains 2×DGK enzyme concentration in Ix assay buffer) was added to the plate in 2 μL/well volume, followed by 2 μL/well of substrate solution (contains 2×concentration of ATP and DLG substrate in Ix assay buffer). Plates were then centrifuged for 1 min at 1200 RPM and sealed or lidded. For 4 μL reaction volume, test compounds were therefore diluted 100× to final top concentration of 20 μM. After 90 minute incubation, reactions were quenched by addition of 2 μL/well Promega ADP-Glo Reagent, followed by centrifugation and lidding. After 60 min incubation, 2 μL/well Promega Kinase Detection Reagent was added, plates centrifuged, and incubated for 30 min. Plates were then read using Luminescence method on BMG PHERAstar FSX plate reader. Percent inhibition was calculated and IC50s were determined using 4-parameter fit in Genedata Screener. Labcyte Echo acoustic dispenser was used for compound addition, and Formulatrix Tempest liquid handler was used for all reagent dispenses.
(In general: In ADP-Glo the light output rises with the ADP produced.)

Test [2] addresses DGKζ (Homo sapiens (Human), UniProt Q13574). In words: In vitro DGKζ inhibition assay (ADP-Glo). The format is biochemical. The note with it: His-tagged human recombinant enzyme, 0.4 nM DGK, 30 μM ATP, 20 μM DLG, 90 minute incubation. The method, then: as §1, §2

Where only a bound is given, the exact number is not on record here.

Sequence of DGKζ (Q13574 whole entry): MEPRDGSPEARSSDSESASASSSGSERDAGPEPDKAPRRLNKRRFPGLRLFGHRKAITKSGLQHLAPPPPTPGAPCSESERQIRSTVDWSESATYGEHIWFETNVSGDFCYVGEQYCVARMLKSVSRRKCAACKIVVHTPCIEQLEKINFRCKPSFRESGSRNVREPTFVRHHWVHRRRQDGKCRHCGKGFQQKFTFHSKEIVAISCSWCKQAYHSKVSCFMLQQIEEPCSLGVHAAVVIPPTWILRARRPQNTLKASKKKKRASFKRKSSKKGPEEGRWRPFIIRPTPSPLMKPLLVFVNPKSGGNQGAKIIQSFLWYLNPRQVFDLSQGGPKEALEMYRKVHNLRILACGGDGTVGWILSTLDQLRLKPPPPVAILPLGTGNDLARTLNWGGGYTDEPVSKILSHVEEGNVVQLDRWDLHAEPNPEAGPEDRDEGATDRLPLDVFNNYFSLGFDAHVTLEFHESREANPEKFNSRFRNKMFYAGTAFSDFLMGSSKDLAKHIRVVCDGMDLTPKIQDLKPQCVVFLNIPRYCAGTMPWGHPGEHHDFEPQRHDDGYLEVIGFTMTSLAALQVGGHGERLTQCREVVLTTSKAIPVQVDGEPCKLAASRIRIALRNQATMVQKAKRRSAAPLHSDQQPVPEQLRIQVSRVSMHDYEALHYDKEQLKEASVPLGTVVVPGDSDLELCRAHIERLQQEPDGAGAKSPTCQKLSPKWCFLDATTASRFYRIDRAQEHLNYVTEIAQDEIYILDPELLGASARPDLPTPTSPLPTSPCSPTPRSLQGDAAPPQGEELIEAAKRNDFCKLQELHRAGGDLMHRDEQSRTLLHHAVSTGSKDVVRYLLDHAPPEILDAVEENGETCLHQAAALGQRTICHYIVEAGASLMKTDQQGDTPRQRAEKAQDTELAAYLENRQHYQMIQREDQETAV

The term IC50 denotes the concentration that gives 50% inhibition. In the case of `CC[C@H]1CN(C(c2ccc(F)cc2)c2ccc(F)cc2)[C@H](CC)CN1c1nc2nncn2c2c1nnn2C[C@H]1CCCO1` [Example 33, 4-((2S,5R)-4-(Bis(4-fluorophenyl)methyl)-2,5-diethylpiperazin-1-yl)-1-(((R)-tetrahydrofuran-2-yl)methyl)-1H-[1,2,3]triazolo[4,5-e][1,2,4]triazolo[4,3-a]pyrimidine], the IC50 in test [1] and in test [2] was no more than 20 nM throughout.

For the molecule `[2H]c1nc2c(N3C[C@@H](C)N(C(c4ccc(F)cc4)c4ccc(F)cc4)C[C@@H]3C)nc3nncn3c2n1CCN(C)C` [Example 34, 2-(4-((2S,5R)-4-(Bis(4-fluorophenyl)methyl)-2,5-dimethylpiperazin-1-yl)-1H-[1,2,4]triazolo[3,4-b]purin-1-yl-2-d)-N,N-dimethylethan-1-amine], the IC50 in test [1] and in test [2] was no more than 20 nM throughout.

In the case of `CC[C@H]1CN(C(c2ccc(F)cc2)c2ccc(F)cc2)[C@H](CC)CN1c1nc2nncn2c2c1ncn2CCN(C)C` [Example 35, 2-(4-((2S,5R)-4-(Bis(4-fluorophenyl)methyl)-2,5-diethylpiperazin-1-yl)-1H-[1,2,4]triazolo[3,4-b]purin-1-yl)-N,N-dimethylethan-1-amine], the IC50 in test [1] and in test [2] was no more than 20 nM each time.

As for `[2H]c1nc2c(N3C[C@@H](CC)N(C(c4ccc(F)cc4)c4ccc(F)cc4)C[C@@H]3CC)nc3nncn3c2n1CCN(C)C` [Example 36, 2-(4-((2S,5R)-4-(Bis(4-fluorophenyl)methyl)-2,5-diethylpiperazin-1-yl)-1H-[1,2,4]triazolo[3,4-b]purin-1-yl-2-d)-N,N-dimethylethan-1-amine], the IC50 in test [1] and in test [2] was no more than 20 nM throughout.

Turning to `CC[C@@H]1CN(c2nc3nncn3c3c2ncn3CCN(C)C)[C@@H](C)CN1C(c1ccc(F)cc1)c1ccc(F)cc1` [Example 37, 2-(4-((2S,5R)-4-(Bis(4-fluorophenyl)methyl)-5-ethyl-2-methylpiperazin-1-yl)-1H-[1,2,4]triazolo[3,4-b]purin-1-yl)-N,N-dimethylethan-1-amine], the IC50 in test [1] and in test [2] was no more than 20 nM each time.

With `[2H]c1nc2c(N3C[C@@H](CC)N(C(c4ccc(F)cc4)c4ccc(F)cc4)C[C@@H]3C)nc3nncn3c2n1CCN(C)C` [Example 38, 2-(4-((2S,5R)-4-(Bis(4-fluorophenyl)methyl)-5-ethyl-2-methylpiperazin-1-yl)-1H-[1,2,4]triazolo[3,4-b]purin-1-yl-2-d)-N,N-dimethylethan-1-amine], the IC50 in test [1] and in test [2] was no more than 20 nM each time.

For `CC[C@@H]1CN(c2nc3nncn3c3c2nnn3C[C@@H]2CCCO2)[C@@H](C)CN1C(c1ccc(Cl)cc1)c1ccc(Cl)cc1` [Example 39, 4-((2S,5R)-4-(Bis(4-chlorophenyl)methyl)-5-ethyl-2-methylpiperazin-1-yl)-1-(((S)-tetrahydrofuran-2-yl)methyl)-1H-[1,2,3]triazolo[4,5-e][1,2,4]triazolo[4,3-a]pyrimidine], the IC50 in test [1] and in test [2] was no more than 20 nM in each case.

As for `CC[C@@H]1CN(c2nc3nncn3c3c2nnn3C[C@H]2CCCO2)[C@@H](C)CN1C(c1ccc(Cl)cc1)c1ccc(Cl)cc1` [Example 40, 4-((2S,5R)-4-(Bis(4-chlorophenyl)methyl)-5-ethyl-2-methylpiperazin-1-yl)-1-(((R)-tetrahydrofuran-2-yl)methyl)-1H-[1,2,3]triazolo[4,5-e][1,2,4]triazolo[4,3-a]pyrimidine], the IC50 in test [1] and in test [2] was no more than 20 nM in each case.

On to `CC[C@@H]1CN(c2nc3nncn3c3c2nc(C)n3C[C@@H]2CCCO2)[C@@H](C)CN1C(c1ccc(Cl)cc1)c1ccc(Cl)cc1` [Example 41, 4-((2S,5R)-4-(Bis(4-chlorophenyl)methyl)-5-ethyl-2-methylpiperazin-1-yl)-2-methyl-1-(((S)-tetrahydrofuran-2-yl)methyl)-1H-[1,2,4]triazolo[3,4-b]purine], for which the IC50 in test [1] and in test [2] was no more than 20 nM throughout.

In the case of `CC[C@@H]1CN(c2nc3nncn3c3c2nc(C)n3C[C@H]2CCCO2)[C@@H](C)CN1C(c1ccc(Cl)cc1)c1ccc(Cl)cc1` [Example 42, 4-((2S,5R)-4-(Bis(4-chlorophenyl)methyl)-5-ethyl-2-methylpiperazin-1-yl)-2-methyl-1-(((R)-tetrahydrofuran-2-yl)methyl)-1H-[1,2,4]triazolo[3,4-b]purine], the IC50 in test [1] and in test [2] was no more than 20 nM throughout.

Turning to `Cc1nc2c(N3C[C@@H](C)N([C@H](c4ccc(F)c(F)c4)C4CC(F)(F)C4)C[C@@H]3C)nc3nncn3c2n1C[C@@H]1CCCO1` [Example 46, 4-((2S,5R)-4-((S)-(3,3-Difluorocyclobutyl)(3,4-difluorophenyl)methyl)-2,5-dimethylpiperazin-1-yl)-2-methyl-1-(((S)-tetrahydrofuran-2-yl)methyl)-1H-[1,2,4]triazolo[3,4-b]purine], the IC50 in test [1] and in test [2] was no more than 20 nM each time.

In the case of `Cc1nc2c(N3C[C@@H](C)N([C@@H](c4ccc(F)c(F)c4)C4CC(F)(F)C4)C[C@@H]3C)nc3nncn3c2n1C[C@@H]1CCCO1` [Example 47, 4-((2S,5R)-4-((R)-(3,3-difluorocyclobutyl)(3,4-difluorophenyl)methyl)-2,5-dimethylpiperazin-1-yl)-2-methyl-1-(((S)-tetrahydrofuran-2-yl)methyl)-1H-[1,2,4]triazolo[3,4-b]purine], the IC50 in test [1] and in test [2] was no more than 20 nM each time.

As for `Cc1nc2c(N3C[C@@H](C)N([C@H](c4ccc(Cl)c(Cl)c4)C4CC(F)(F)C4)C[C@@H]3C)nc3nncn3c2n1C[C@@H]1CCCO1` [Example 48, 4-((2S,5R)-4-((S)-(3,4-Dichlorophenyl)(3,3-difluorocyclobutyl)methyl)-2,5-dimethylpiperazin-1-yl)-2-methyl-1-(((S)-tetrahydrofuran-2-yl)methyl)-1H-[1,2,4]triazolo[3,4-b]purine], the IC50 in test [1] and in test [2] was no more than 20 nM each time.

With `Cc1nc2c(N3C[C@@H](C)N([C@@H](c4ccc(Cl)c(Cl)c4)C4CC(F)(F)C4)C[C@@H]3C)nc3nncn3c2n1C[C@@H]1CCCO1` [Example 49, 4-((2S,5R)-4-((R)-(3,4-dichlorophenyl)(3,3-difluorocyclobutyl)methyl)-2,5-dimethylpiperazin-1-yl)-2-methyl-1-(((S)-tetrahydrofuran-2-yl)methyl)-1H-[1,2,4]triazolo[3,4-b]purine], the IC50 in test [1] and in test [2] was no more than 20 nM throughout.

On to `Cc1cc(C(C2CC(F)(F)C2)N2C[C@H](C)N(c3nc4nncn4c4c3nc(C)n4C[C@@H]3CCCO3)C[C@H]2C)ccc1Cl` (stereo partly drawn) [Example 51, 4-((2S,5R)-4-((4-Chloro-3-methylphenyl)(3,3-difluorocyclobutyl)methyl)-2,5-dimethylpiperazin-1-yl)-2-methyl-1-(((S)-tetrahydrofuran-2-yl)methyl)-1H-[1,2,4]triazolo[3,4-b]purine], for which the IC50 in test [1] and in test [2] was no more than 20 nM throughout.

In the case of `Cc1nc2c(N3C[C@@H](C)N(C(c4cc(F)c(F)c(F)c4)C4CC(F)(F)C4)C[C@@H]3C)nc3nncn3c2n1C[C@@H]1CCCO1` (stereo partly drawn) [Example 52, 4-((2S,5R)-4-((3,3-Difluorocyclobutyl)(3,4,5-trifluorophenyl)methyl)-2,5-dimethylpiperazin-1-yl)-2-methyl-1-(((S)-tetrahydrofuran-2-yl)methyl)-1H-[1,2,4]triazolo[3,4-b]purine], the IC50 in test [1] and in test [2] was no more than 20 nM throughout.

Take `Cc1nc2c(N3C[C@@H](C)N(C(c4cc(F)ccc4F)C4CC(F)(F)C4)C[C@@H]3C)nc3nncn3c2n1C[C@@H]1CCCO1` (stereo partly drawn) [Example 53, 4-((2S,5R)-4-((3,3-Difluorocyclobutyl)(2,5-difluorophenyl)methyl)-2,5-dimethylpiperazin-1-yl)-2-methyl-1-(((S)-tetrahydrofuran-2-yl)methyl)-1H-[1,2,4]triazolo[3,4-b]purine]: the IC50 in test [1] and in test [2] was no more than 20 nM throughout.

For the molecule `Cc1nc2c(N3C[C@@H](C)N(C(c4ccc(F)c(C(F)F)c4)C4CC(F)(F)C4)C[C@@H]3C)nc3nncn3c2n1C[C@@H]1CCCO1` (stereo partly drawn) [Example 54, 4-((2S,5R)-4-((3,3-Difluorocyclobutyl)(3-(difluoromethyl)-4-fluorophenyl)methyl)-2,5-dimethylpiperazin-1-yl)-2-methyl-1-(((S)-tetrahydrofuran-2-yl)methyl)-1H-[1,2,4]triazolo[3,4-b]purine], the IC50 in test [1] and in test [2] was no more than 20 nM in each case.
